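All cell lines were grown in 96-well plates and treated with compound for 48 hours. GI50: concentration for 50% inhibition of growth.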 Active and inactive are the calls of the source. No stated cut-off is given here; in the data, active = GI50 up to about 1.1 µM and inactive = higher.
Columns and labels:
Test in all cases: inhibition of tumour cell growth, NCI panel, 48 h
SK-MEL-2 = tested on: SK-MEL-2
SF-268 = tested on: SF-268
DMS-273 = tested on: DMS-273
SK-OV-3 = tested on: SK-OV-3
HOP-62 = tested on: HOP-62
A549 = tested on: A549
HCT-15 = tested on: HCT-15
HCC 2998 = tested on: HCC 2998
M14 = tested on: M14
ACHN = tested on: ACHN
DLD-1 = tested on: DLD-1
SK-MEL-5 = tested on: SK-MEL-5
CAKI-1 = tested on: CAKI-1
MDA-MB-435 = tested on: MDA-MB-435
SR = tested on: SR
PC-3 = tested on: PC-3
UACC-62 = tested on: UACC-62
NCI-H23 = tested on: NCI-H23
OVCAR-4 = tested on: OVCAR-4
NCI-H460 = tested on: NCI-H460
HOP-92 = tested on: HOP-92
NCI-H522 = tested on: NCI-H522
HT-29 = tested on: HT-29
UO-31 = tested on: UO-31
Malme-3M = tested on: Malme-3M
HOP-18 = tested on: HOP-18
786-0 = tested on: 786-0
RPMI-8226 = tested on: RPMI-8226
KM-20L2 = tested on: KM-20L2
RXF 393 = tested on: RXF 393
M19-MEL = tested on: M19-MEL
IGROV-1 = tested on: IGROV-1
NCI-H226 = tested on: NCI-H226
SNB-19 = tested on: SNB-19
OVCAR-3 = tested on: OVCAR-3
COLO 205 = tested on: COLO 205
CCRF-CEM = tested on: CCRF-CEM
SF-295 = tested on: SF-295
Hs-578T = tested on: Hs-578T
OVCAR-8 = tested on: OVCAR-8
MOLT-4 = tested on: MOLT-4
KM12 = tested on: KM12
TK-10 = tested on: TK-10
UACC-257 = tested on: UACC-257
SW-620 = tested on: SW-620
SF-539 = tested on: SF-539
LXFL 529 = tested on: LXFL 529
HCT-116 = tested on: HCT-116
MDA-MB-231 = tested on: MDA-MB-231
XF498 = tested on: XF498
MCF7 = tested on: MCF7
SNB-78 = tested on: SNB-78
T47D = tested on: T47D
EKVX = tested on: EKVX
DU-145 = tested on: DU-145
HL-60 = tested on: HL-60
OVCAR-5 = tested on: OVCAR-5
SK-MEL-28 = tested on: SK-MEL-28
DMS-114 = tested on: DMS-114
MDA-N = tested on: MDA-N
U-251 = tested on: U-251
K562 = tested on: K562
SNB-75 = tested on: SNB-75
SN12C = tested on: SN12C
LOX IMVI = tested on: LOX IMVI

`CO/C1=C\C(C)=C\C(C)C(O)C(C)C/C(C)=C/C=C/C(OC)C(C(C)C(O)C(C)C2(O)CC(O)C(C)C(C(C)C)O2)OC1=O` (centres undefined) was tested, and the GI50 (SK-MEL-2) was 4.53 nM (active), the GI50 (SF-268) was 5.19 nM (active) and the GI50 (DMS-273) was 0.261 nM (active). For the same compound, the GI50 (SK-OV-3) was 684 nM (active), the GI50 (HOP-62) was 0.051 nM (active) and the GI50 (A549) was 1.01 nM (active). For the same compound, the GI50 (HCT-15) was 0.143 nM, the GI50 (HCC 2998) was 0.757 nM (active) and the GI50 (M14) was 0.369 nM (active). For the same compound, the GI50 (ACHN) was 14.8 nM (active), the GI50 (DLD-1) was 0.0705 nM (active) and the GI50 (SK-MEL-5) was 0.396 nM (active). The GI50 (CAKI-1) was 2.05 nM (active), the GI50 (MDA-MB-435) was 1.98 nM (active) and the GI50 (SR) was 0.0908 nM (active). For the same compound, the GI50 (PC-3) was 2.52 nM (active), the GI50 (UACC-62) was 2.8 nM (active) and the GI50 (NCI-H23) was 2.67 nM (active). For the same compound, the GI50 (OVCAR-4) was 10 nM (active), the GI50 (NCI-H460) was 0.401 nM (active) and the GI50 (HOP-92) was 0.41 nM (active). For the same compound, the GI50 (NCI-H522) was 1.12 nM (active), the GI50 (HT-29) was 0.0664 nM (active) and the GI50 (UO-31) was 2.78 nM (active). For the same compound, the GI50 (Malme-3M) was 11.9 nM (active), the GI50 (HOP-18) was 10100 nM (inactive) and the GI50 (786-0) was 3.31 nM (active). For the same compound, the GI50 (RPMI-8226) was 1.51 nM (active), the GI50 (KM-20L2) was 0.0112 nM (active) and the GI50 (RXF 393) was 5.26 nM (active). For the same compound, the GI50 (M19-MEL) was 3.74 nM (active), the GI50 (IGROV-1) was 2.23 nM (active) and the GI50 (NCI-H226) was 13.4 nM (active). For the same compound, the GI50 (SNB-19) was 10900 nM (inactive), the GI50 (OVCAR-3) was 4.34 nM (active) and the GI50 (COLO 205) was 3.43 nM (active). For the same compound, the GI50 (CCRF-CEM) was 1.19 nM (active), the GI50 (SF-295) was 1.63 nM (active) and the GI50 (Hs-578T) was 11 nM (active). For the same compound, the GI50 (OVCAR-8) was 1.64 nM (active), the GI50 (MOLT-4) was 2.2 nM (active) and the GI50 (KM12) was 0.351 nM (active). For the same compound, the GI50 (TK-10) was 14500 nM (inactive), the GI50 (UACC-257) was 6.34 nM (active) and the GI50 (SW-620) was 0.471 nM (active). For the same compound, the GI50 (SF-539) was 1.93 nM (active), the GI50 (LXFL 529) was 0.323 nM (active) and the GI50 (HCT-116) was 0.382 nM (active). For the same compound, the GI50 (MDA-MB-231) was 0.382 nM (active), the GI50 (XF498) was 24.2 nM (active) and the GI50 (MCF7) was 3.71 nM (active). For the same compound, the GI50 (SNB-78) was 10200 nM (inactive), the GI50 (T47D) was 2.97 nM (active) and the GI50 (EKVX) was 56.6 nM (active). For the same compound, the GI50 (DU-145) was 0.873 nM (active), the GI50 (HL-60) was 0.134 nM (active) and the GI50 (OVCAR-5) was 0.491 nM (active). The GI50 (SK-MEL-28) was 66.1 nM (active), the GI50 (DMS-114) was 4.58 nM (active) and the GI50 (MDA-N) was 1.82 nM (active). For the same compound, the GI50 (U-251) was 7.06 nM (active), the GI50 (K562) was 2.31 nM (active) and the GI50 (SNB-75) was 8.57 nM (active). The GI50 (SN12C) was 10 nM (active) and the GI50 (LOX IMVI) was 0.01 nM (active).
With `O=C(O)c1c(-c2cccc3ccccc23)sc(-c2cccc3ccccc23)c1C(=O)O` the GI50 (SK-MEL-2) was 35900 nM (inactive), the GI50 (SF-268) was > 100000 nM (inactive) and the GI50 (DMS-273) was > 100000 nM (inactive). For the same compound, the GI50 (SK-OV-3) was > 100000 nM (inactive), the GI50 (A549) was > 100000 nM (inactive) and the GI50 (HCT-15) was > 100000 nM. For the same compound, the GI50 (HCC 2998) was > 100000 nM (inactive), the GI50 (M14) was > 100000 nM (inactive) and the GI50 (ACHN) was > 100000 nM (inactive). For the same compound, the GI50 (DLD-1) was > 100000 nM (inactive), the GI50 (SK-MEL-5) was > 100000 nM (inactive) and the GI50 (SR) was 47900 nM (inactive). For the same compound, the GI50 (UACC-62) was 46100 nM (inactive), the GI50 (NCI-H23) was > 100000 nM (inactive) and the GI50 (NCI-H460) was > 100000 nM (inactive). The GI50 (HOP-92) was > 100000 nM (inactive), the GI50 (NCI-H522) was 74800 nM (inactive) and the GI50 (HT-29) was > 100000 nM (inactive). For the same compound, the GI50 (UO-31) was 88300 nM (inactive), the GI50 (Malme-3M) was > 100000 nM (inactive) and the GI50 (HOP-18) was 96200 nM (inactive). For the same compound, the GI50 (786-0) was > 100000 nM (inactive), the GI50 (RPMI-8226) was 58100 nM (inactive) and the GI50 (KM-20L2) was 50000 nM (inactive). The GI50 (RXF 393) was > 100000 nM (inactive), the GI50 (M19-MEL) was > 100000 nM (inactive) and the GI50 (IGROV-1) was > 100000 nM (inactive). The GI50 (NCI-H226) was > 100000 nM (inactive), the GI50 (SNB-19) was > 100000 nM (inactive) and the GI50 (OVCAR-3) was 63800 nM (inactive). The GI50 (COLO 205) was > 100000 nM (inactive), the GI50 (CCRF-CEM) was 22100 nM (inactive) and the GI50 (SF-295) was > 100000 nM (inactive). The GI50 (OVCAR-8) was > 100000 nM (inactive), the GI50 (MOLT-4) was 27200 nM (inactive) and the GI50 (KM12) was 36600 nM (inactive). For the same compound, the GI50 (TK-10) was > 100000 nM (inactive), the GI50 (UACC-257) was > 100000 nM (inactive) and the GI50 (SW-620) was > 100000 nM (inactive). The GI50 (SF-539) was > 100000 nM (inactive), the GI50 (LXFL 529) was > 100000 nM (inactive) and the GI50 (HCT-116) was > 100000 nM (inactive). The GI50 (XF498) was 18200 nM (inactive), the GI50 (SNB-78) was > 100000 nM (inactive) and the GI50 (EKVX) was 90800 nM (inactive). The GI50 (HL-60) was > 100000 nM (inactive), the GI50 (OVCAR-5) was > 100000 nM (inactive) and the GI50 (SK-MEL-28) was > 100000 nM (inactive). The GI50 (DMS-114) was > 100000 nM (inactive), the GI50 (U-251) was > 100000 nM (inactive) and the GI50 (K562) was 90800 nM (inactive). For the same compound, the GI50 (SNB-75) was > 100000 nM (inactive), the GI50 (SN12C) was > 100000 nM (inactive) and the GI50 (LOX IMVI) was > 100000 nM (inactive).
